Measured values reported in ChEMBL document CHEMBL4680279, “Opportunities for Tapping into Three-Dimensional Chemical Space through a Quaternary Carbon” (J Med Chem, 2020).
Converted amounts (≈) assume the structure as drawn.

Tests used:
[1] = biological target: Growth hormone secretagogue receptor type 1 (Rattus norvegicus, UniProt O08725); experiment: Agonist activity at GHSR in Wistar rat pituitary gland cells assessed as induction of GH release by RIA; assay type: tissue-based, Pituitary gland cell
Growth hormone secretagogue receptor type 1, sequence (O08725 whole entry): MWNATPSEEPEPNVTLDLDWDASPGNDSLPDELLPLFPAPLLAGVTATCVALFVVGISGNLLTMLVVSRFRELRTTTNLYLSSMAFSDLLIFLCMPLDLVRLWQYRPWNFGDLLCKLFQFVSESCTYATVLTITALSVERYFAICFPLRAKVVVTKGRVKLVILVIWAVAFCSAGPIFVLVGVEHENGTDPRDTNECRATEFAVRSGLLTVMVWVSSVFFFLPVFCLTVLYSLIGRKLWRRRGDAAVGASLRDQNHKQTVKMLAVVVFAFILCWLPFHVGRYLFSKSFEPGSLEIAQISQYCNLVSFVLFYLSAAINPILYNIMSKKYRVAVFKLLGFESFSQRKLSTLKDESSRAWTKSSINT

[2] = biological target: Cholecystokinin(CCK) A/B (Homo sapiens) (UniProt P32239+P32238); experiment: Selectivity index, ratio of IC50 for human Cholecystokinin B receptor expressed in CHO-K1 cells to IC50 for human Cholecystokinin A receptor expressed in CHO-K1 cells; assay type: cell-based
Cholecystokinin(CCK) A/B (Homo sapiens), sequence (P32238 whole entry, looked up): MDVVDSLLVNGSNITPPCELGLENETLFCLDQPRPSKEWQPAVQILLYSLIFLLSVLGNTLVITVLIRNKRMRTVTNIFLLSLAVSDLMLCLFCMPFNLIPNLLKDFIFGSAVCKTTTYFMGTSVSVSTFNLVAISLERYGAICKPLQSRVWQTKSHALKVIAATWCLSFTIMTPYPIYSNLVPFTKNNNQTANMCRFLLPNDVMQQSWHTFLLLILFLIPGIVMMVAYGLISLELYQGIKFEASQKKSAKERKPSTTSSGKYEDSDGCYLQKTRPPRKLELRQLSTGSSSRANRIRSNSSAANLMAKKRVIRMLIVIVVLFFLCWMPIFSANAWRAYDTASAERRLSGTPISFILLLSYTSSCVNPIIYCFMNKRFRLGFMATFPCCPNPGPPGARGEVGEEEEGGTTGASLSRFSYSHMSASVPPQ
Cholecystokinin(CCK) A/B (Homo sapiens), sequence (P32239 whole entry, looked up): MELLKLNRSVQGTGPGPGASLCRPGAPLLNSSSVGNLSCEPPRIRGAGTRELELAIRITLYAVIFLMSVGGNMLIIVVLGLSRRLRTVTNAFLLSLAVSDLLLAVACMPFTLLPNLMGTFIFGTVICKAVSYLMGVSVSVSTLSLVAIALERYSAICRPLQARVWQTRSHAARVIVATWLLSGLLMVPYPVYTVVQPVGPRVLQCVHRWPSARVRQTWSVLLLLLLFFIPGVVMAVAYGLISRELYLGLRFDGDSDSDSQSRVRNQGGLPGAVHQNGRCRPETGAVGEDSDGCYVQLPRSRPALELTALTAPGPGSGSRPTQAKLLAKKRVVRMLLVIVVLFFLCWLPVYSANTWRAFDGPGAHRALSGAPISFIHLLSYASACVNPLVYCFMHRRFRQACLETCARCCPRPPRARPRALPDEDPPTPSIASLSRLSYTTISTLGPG

[3] = Displacement of N-[3H]ethyladenosin-5'-uronamide from adenosine receptor A2 in rat striatal membranes by liquid scintillation counting method; assay type: cell membranes, Striatum, Membrane
[4] = Selectivity ratio of Ki for Displacement of N-[3H]ethyladenosin-5'-uronamide from adenosine receptor A2 in rat striatal membranes to Ki for Displacement of N6-[3H]cyclohexyladenosine from adenosine receptor A1 in guinea pig forebrain membranes; assay type: cell membranes
Aspergillus fumigatus = experiment: Antifungal activity against Aspergillus fumigatus incubated for 72 hrs; assay type: functional
Candida albicans = experiment: Antifungal activity against Candida albicans 124 incubated for 48 hrs; assay type: functional

SMILES	Ratio IC50 [2]	MIC (Aspergillus fumigatus) [µg/mL]	MIC (Candida albicans) [µg/mL]	other results
CN1N=C2CCN(C(=O)[C@@H](COCc3ccccc3)NC(=O)C(C)(C)N)C[C@@]2(Cc2ccccc2)C1=O [CAPROMORELIN]				EC50 [1]: 0.003 µM
CC(C)N(C(=O)CN1C(=O)C(C)(CC(=O)Nc2ccccc2)C(=O)N(c2ccccc2)c2ccccc21)c1ccccc1 (centres undefined)	110			
CCCn1c(=O)c2nc(C3C(C)(C)CCC3(C)C)[nH]c2n(CCC)c1=O				Ki [3]: > 100 µM; Ratio Ki [4]: > 4500
CC(C)N(C(=O)CN1C(=O)C(CC(=O)Nc2ccccc2)C(=O)N(c2ccccc2)c2ccccc21)c1ccccc1 (centres undefined)	5			
CN(Cc1ccc(Cc2ccccc2)cc1)Cc1cccc2ccccc12		> 100	> 100	
CC(C)N(C(=O)CN1C(=O)C(C)(NC(=O)Nc2ccccc2)C(=O)N(c2ccccc2)c2ccccc21)c1ccccc1 (centres undefined)	0.2			
CN(Cc1ccc(C(C)(C)c2ccccc2)cc1)Cc1cccc2ccccc12		0.1 (≈ 0.263 µM)	1.56 (≈ 4.11 µM)	
O=C(NC(Cc1c[nH]c2ccccc12)C(=O)N1CCC2(CCc3ccccc32)CC1)NC1CN2CCC1CC2 (centres undefined) [SPIROPIPERIDINE]				EC50 [1]: 0.05 µM
CN(Cc1ccc(C2(c3ccccc3)CC2)cc1)Cc1cccc2ccccc12		1.56 (≈ 4.13 µM)	3.13 (≈ 8.29 µM)	
CCCn1c(=O)c2[nH]c(C3CCCC3)nc2n(CCC)c1=O [1,3-DIPROPYL-8-CYCLOPENTYLXANTHINE [DPCPX]]				Ki [3]: 0.59 µM
